According to patent publication US20050074879A1, “Antisense oligonucleotide modulation of STAT3 expression” (priority 2000, published 2005):
Oligonucleotides are written 5' to 3', each unit as a sugar letter and its base; * is a phosphorothioate linkage, no mark a phosphodiester; rarer units and linkages stand in square brackets, end groups in braces. Plain capitals give the bases only. e = 2'-O-(2-methoxyethyl) (MOE); [5mC] = 5-methylcytosine; d = 2'-deoxy (DNA)

Columns and labels:
Human STAT3 mRNA [1] = assay: Inhibition of human STAT3 mRNA expression in U266 cells, Northern blot; type: cell-based; settings: for STAT3 mRNA expression in U266 cells (in words): following electroporation, Northern blotting
Method: U266 human myeloma cell lines (originally obtained from American Type Culture Collection) were maintained in RPMI 1640 medium supplemented with 10% fetal calf serum. Cells (15×10^6 cells in PBS) were transfected with oligonucleotides at 200V with a single 6-millisecond pulse using a BTX Electro Square Porator T820 (Genetronics, San Diego Calif.). The cells were incubated for 24 hours before RNA extraction.
Total cellular RNA was isolated using the Rneasy kit (Qiagen, Santa Clarita, Calif.). Northern blotting was perfomed on 15 μg of RNA using a cDNA probe prepared from MB-MDA 468 RNA by standard RT-PCR followed by a nested primer reaction. Signals were quantitated using a Molecular Dynamics Phosphorimager.
In order to examine the importance of STAT3 expression in multiple myeloma cells, a series of 20mer STAT3 antisense oligonucleotides were designed and synthesized, using phosphorothioate chemistry and incorporating 2′-O-methoxyethyl modifications to improve hybridization affinity and nuclease resistance.

[2] = test system: U266 multiple myeloma cells; assay: Apoptosis of U266 cells, Annexin-V staining, flow cytometry; type: cell-based, human
Method: U266 cells (ATCC, Bethesda, Md.) were cultured in RPMI 1640 medium supplemented with 10% heat-inactivated fetal bovine serum (Sigma Chemical Company, St. Louis, Mo.), 10 mM Hepes, pH 7.2, […] 2-ME, 2mM L-glutamine, 100 U/ml penicillin, and 100 µg/ml streptomycin (Gibco, Grand Island, N.Y.).
2′-O-methoxyethylribose modified phosphorothioate oligonucleotides were synthesized on an automated DNA synthesizer (Applied Biosystems model 380B), as described above. Chimeric oligonucleotides were employed in these studies; the chimeric oligonucleotides contain 2′-O-methoxyethyl modified residues flanking a 2′-deoxynucleotide/phosphorothioate region (gap) that supports RNase H activation. Oligonucleotides were analyzed by capillary gel electrophoresis and judged to be at least 85% full-length material. U266 (1×10^7 cells in PBS) were transfected with oligonucleotides by electroporation, at 175V, 1000 μF using a BTX Electro Cell Manipulator 600 (Genetronics, San Diego, Calif.).
10×10^6 U266 cells were electroporated with oligonucleotides and cultured for 48 hours before analysis of phosphatidylserine expression was performed as a measure of apoptosis using the Annexin-V staining kit (Clontech, Palo Alto, Calif.) according to the manufacturer's instructions. […] The samples were then diluted with FacsFlow buffer and analyzed on a Becton Dickinson FACScan (Mountain View, Calif.).

Human STAT3 mRNA [3] = assay: STAT3 mRNA in A549 cells treated with dsRNAs (duplex antisense compounds), real-time PCR PPS 199 (Table 22); type: cell-based; settings: treated 4 hours, harvested 16 hours later, − decrease, + increase vs untreated control
Method: When cells reached 80% confluency, they are treated with duplexed antisense compounds of the invention. For cells grown in 96-well plates, wells are washed once with […] OPTI-MEM-1 reduced-serum medium (Gibco BRL) and then treated with 130 μL of OPTI-MEM-1 containing 12 μg/mL LIPOFECTIN (Gibco BRL) and the desired duplex antisense compound at a final concentration of 200 nM (a ratio of 6 μg/mL LIPOFECTIN per 100 nM duplex antisense compound). After 5 hours of treatment, the medium is replaced with fresh medium. Cells are harvested 16 hours after treatment, at which time RNA is isolated and target reduction measured by RT-PCR.
The compounds in Table 21 were tested for their effects on human STAT3 expression in A549 cells. ISIS 330249 targets the same site as the antisense oligonucleotid ISIS 106734 (SEQ ID NO: 45) and ISIS 330247 targets the same site as the antisense oligonucleotide ISIS 113176 (SEQ ID NO: 115); thus, ISIS 106734 and ISIS 113176 were also tested. A549 cells were treated with oligonucleotide mixed with LIPOFECTIN (Invitrogen Corporation, Carlsbad, Calif.) as described herein. The control oligonucleotide used was ISIS 129698 ([…], SEQ ID NO: 402). Cells were treated with oligonucleotide for 4 hours and harvested an additional 16 hours later. Untreated cells served as a control.
Human STAT3 mRNA expression levels were quantitated by real-time PCR using primer probe set PPS 199 and gene target quantities were normalized using Ribogreen as described in other examples herein. A “−” or “+” designation indicates a decrease or increase of STAT 3 mRNA expression, respectively, relative to untreated control cells. Where present, “N.D.” indicates not determined.

LGL leukemic cells = assay: Sensitization of LGL cells to Fas-mediated apoptosis, flow cytometry; type: cell-based, human
Method: LGL leukemic cells were obtained from patients who met the clinical criteria of T cell (CD3+) LGL leukemia with increased LGL counts and clonal TCR gene rearrangements. All patients had chronic disease not requiring treatment at the time of analysis. Purified leukemic LGL cells were placed in 24-well plates at a concentration of 2×10^6/0.5 mL of complete medium (RPMI-1640 medium supplemented with 10% fetal bovine serum, 2 mM L-glutamine, 10 U/mL penicillin, and 100 ug/mL streptomycin, all from Gibco Life Technologies, Gaithersburg, Md.). Cells were incubated with either ISIS 17148 antisense oligonucleotide (SEQ ID NO: 95) or the control, ISIS 16094 (SEQ ID NO: 152). Antisense oligonucleotide delivery to LGL leukemic cells was by passive uptake and no transfection reagents were included in the reaction.
Extracts of LGL cells treated with antisense oligonucleotides (1 uM dosing for ISIS 17148 and the control) from three patients were obtained and assayed for STAT3 protein levels by Western blot. Sensitization of the LGL cells to Fas-mediated apoptosis was also measured by flow cytometry in cells treated with antisense oligonucleotides at doses of 1, 2 and 5 uM. By Western analysis, a reduction in STAT3 protein levels ranged from 25 to 45%. […] Levels of apoptosis in control oligonucleotide treated cells remained at 6% at all doses.

[4] = test system: LNCaP human prostatic carcinoma xenograft; assay: LNCaP mouse model of prostate carcinoma: tumor volume and serum PSA in castrated nude mice; type: in vivo; settings: 10 mg/kg intraperitoneally, up to 10 weeks post-castration
Method: The LNCaP murine model of human prostate carcinoma is described in Kiyama et al., Cancer Res. 63:3575-3584, 2003, incorporated herein by reference. Briefly, LNCaP human prostatic carcinoma cells were cultured and maintained in RPMI medium (Life Technologies, Inc., Carlsbad, Calif.) supplemented with 5% heat inactivated fetal calf serum (FCS). About 1×10^6 LNCaP cells were inoculated subcutaneously with 0.1 ml of Matrigel (Becton Dickinson Labware, Franklin Lakes, N.J.) in the flank region of 6-8 week old male athymic nude mice (Harlan Sprague Dawley, Inc., Indianapolis, Ind.) via a 27 gauge needle under methoxyfluorane anesthesia. Mice bearing tumors between 300 and 500 mm^3 in volume were castrated via a scrotal approach and randomly assigned to treatment with 10 mg/kg of either ISIS 113176 human antisense or ISIS 129987 human mismatch control STAT 3 oligonucleotide intraperitoneally five times per week for the first week followed by three times per week thereafter. Treatment commenced beginning one day after castration. […] Tumor volumes were calculated by the formula L×W×H×0.5236 (Gleave et al., Cancer Res. 51:1598-1605, 1992). Blood samples were obtained from tail vein incisions of mice, and serum PSA levels were determined by an enzymatic immunoassay kit with a lower limit of sensitivity of 0.2 μg/liter (Abbott IMX, Montreal, Quebec, Canada) according to the manufacturer's protocol.

| Substance | Percent inhibition of STAT3 expression (Human STAT3 mRNA [1]; Oligo concentration 2.5 μM) [%] | Percent inhibition of STAT3 expression (Human STAT3 mRNA [1]; Oligo concentration 5 μM) [%] | Percent inhibition of STAT3 expression (Human STAT3 mRNA [1]; Oligo concentration 10 μM) [%] | % mRNA INHIBITION (Human STAT3 mRNA [1]; U266 cells, 2.5 μM oligonucleotide, electroporation, 24 hours) [%] | % mRNA EXPRESSION (Human STAT3 mRNA [1]; U266 cells, 2.5 μM oligonucleotide, electroporation, 24 hours, percent of control) [%] | annexin V staining (in words) [2] | Percent change in STAT3 mRNA expression in A549 cells by duplex antisense compounds (Human STAT3 mRNA [3]; 12.5 nM oligonucleotide) | Percent change in STAT3 mRNA expression in A549 cells by duplex antisense compounds (Human STAT3 mRNA [3]; 25 nM oligonucleotide) | Percent change in STAT3 mRNA expression in A549 cells by duplex antisense compounds (Human STAT3 mRNA [3]; 50 nM oligonucleotide) | Percent change in STAT3 mRNA expression in A549 cells by duplex antisense compounds (Human STAT3 mRNA [3]; 100 nM oligonucleotide) [%] | Percent change in STAT3 mRNA expression in A549 cells by duplex antisense compounds (Human STAT3 mRNA [3]; 200 nM oligonucleotide) [%] | Percent change in STAT3 mRNA expression in A549 cells by duplex antisense compounds (Human STAT3 mRNA [3]; 400 nM oligonucleotide) [%] | STAT3 mRNA expression in U266 cells (in words) (Human STAT3 mRNA [1]) | percent specific apoptosis (LGL leukemic cells; 1 uM, untreated cells 5%) [%] | percent specific apoptosis (LGL leukemic cells; 2 uM) [%] | percent specific apoptosis (LGL leukemic cells; 5 uM) [%] | induction of serum PSA levels [4] | tumor growth [4] |
| --- | --- | --- | --- | --- | --- | --- | --- | --- | --- | --- | --- | --- | --- | --- | --- | --- | --- | --- |
| 113176 (antisense eG*e[5mC]*eT*e[5mC]*e[5mC]*dA*dG*d[5mC]*dA*dT*d[5mC]*dT*dG*d[5mC]*dT*eG*e[5mC]*eT*eT*e[5mC]) [compound 113176] | 33 | 67 | 79 | 27.7 | 72.3 | increased levels of annexin V staining | +8% | +17% | +6% | 0 | −22 | −34 | – | – | – | – | – | – |
| ACTCAAACTGCCCTCCTGCT (listed as DNA, chemistry not fully specified) [ISIS 17148] | – | – | – | – | – | increased levels of annexin V staining | – | – | – | – | – | – | potently inhibit STAT3 mRNA expression | 6 | 17 | 24 | – | – |
| GCTCCAGCATCTGCTGCTTC (antisense eG*e[5mC]*eT*e[5mC]*e[5mC]*dA*dG*d[5mC]*dA*dT*d[5mC]*dT*dG*d[5mC]*dT*eG*e[5mC]*eT*eT*e[5mC]) [ISIS 113176] | – | – | – | – | – | – | – | – | – | – | – | – | potently inhibit STAT3 mRNA expression | – | – | – | suppressed | suppressed |
